Measurements as given in US11000033B2, “Ketone or oxime compound, and herbicide” (NISSAN CHEMICAL CORPORATION, priority 2014, dated 2021).

Tests used:
Assay type in all cases: in vivo
rapeseed = assay: Test Example 5: effect on crop by foliage application, plastic box (symbol g); conditions: 3 weeks after application
How it was run: (§1)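 Crop seed is sown alongside grass and broadleaf weed species in spots in sterilized diluvial soil, then covered to a depth of about 1.5 cm. Plants grow in a greenhouse kept at 25° C. to 30° C.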

beet = assay: Test Example 4: effect on crop by soil treatment (symbol f)
How it was run: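 The test used sterilized diluvial soil. Seed was set down in spots and overlaid with about 1.5 cm of soil before growth in a greenhouse kept at 25° C. to 30° C.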

Scirpus juncoides [1] = assay: Test Example 1: herbicidal activity, application before weed generation in submerged conditions (symbol B)
How it was run: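 Paddy pre-emergence test. Formulated emulsion, water-diluted to a predetermined rate, is applied to floodwater on sowing day; rice transplanted at 2.5 leaves. Effect read at 3 weeks on a 0–5 herbicidal-ratio scale.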

Digitaria ciliaris = assay: Test Example 5: herbicidal effect by foliage application, plastic box (symbol F); conditions: 3 weeks after application
How it was run: (§2)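 Effect is rated 3 weeks after a foliar spray of water-diluted emulsion concentrate at a predetermined herbicide amount. Plants had grown 14 days in a 25° C. to 30° C. greenhouse from seed in sterilized diluvial soil.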

Scirpus juncoides [2] = assay: Test Example 2: herbicidal activity, application during weed generation in submerged conditions (symbol B); conditions: Table 23, grade 0-5 by criteria of Test Example 1
How it was run: (§3)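 Weeds emerging under flooded conditions were treated with compound formulated as an emulsion and diluted with water to the intended herbicide amount, poured onto the surface of 4 cm standing water. Seeds had been co-sown in alluvial soil; plants grew at 25° C. to 30° C. and were assessed after 3 weeks.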

Avena fatua = assay: Test Example 4: herbicidal effect by soil treatment (symbol I)
How it was run: (§4)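 Seeds were sown in sterilized diluvial soil, covered with about 1.5 cm of soil, and the soil surface was sprayed with a water-diluted emulsion of the compound at a predetermined rate. Plants grew in a greenhouse at 25° C. to 30° C.; effects were scored visually 3 weeks after application.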

Chenopodium album = assay: Test Example 5: herbicidal effect by foliage application, plastic box (symbol O); conditions: 3 weeks after application
How it was run: as §2

[3] = system: Echinochloa oryzacola Vasing.; assay: Test Example 2: herbicidal activity, application during weed generation in submerged conditions (symbol A); conditions: Table 23, grade 0-5 by criteria of Test Example 1
How it was run: as §3

Stellaria media = assay: Test Example 4: herbicidal effect by soil treatment (symbol P)
How it was run: as §4

[4] = system: Echinochloa crus-galli var. crus-galli; assay: Test Example 3: herbicidal effect by foliage application, Wagner pot (symbol H); conditions: for H (Echinochloa crus-galli var. crus-galli) herbicidal effect grade: Table 24
How it was run: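 Alluvial soil was flooded to a depth of 0.1–0.5 cm, seeded with the weeds and rice, and kept in a greenhouse at 25–30 °C. After 14 days of growth, the foliage received a small-sprayer application of emulsion diluted to the intended rate; injury was rated at 3 weeks.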

rice plant = assay: Test Example 5: effect on crop by foliage application, plastic box (symbol b); conditions: 3 weeks after application
How it was run: as §1

[5] = application herbicide amount 320 g/ha
[6] = application herbicide amount 102 g/ha
[7] = application herbicide amount 269 g/ha

SMILES: CC#Cc1cc(C)c(C2=C(OC(=O)COc3ccccc3)CC(CC(C)=NOCC(F)(F)F)C2=O)c(C)c1 (stereo not shown) [9-013]
- g: rapeseed, effect on crop grade (rapeseed; 320 g/ha): 4 (Herbicidal ratio of 70% or higher and lower than 90%)
- Effect on crop grade, f: beet (beet; [5]): 5 (Herbicidal ratio of 90% or more (almost completely withered))
- B (Scirpus juncoides) herbicidal effect grade (Scirpus juncoides [1]; [5]): 5 (Herbicidal ratio of 90% or more (almost completely withered))
- F: Digitaria ciliaris, herbicidal effect grade (Digitaria ciliaris; 320 g/ha): 5 (Herbicidal ratio of 90% or more (almost completely withered))
- Herbicidal effect grade, B: Scirpus juncoides (Scirpus juncoides [2]; [5]): 5 (Herbicidal ratio of 90% or more (almost completely withered))
- Herbicidal effect grade, I: Avena fatua (Avena fatua; [5]): 5 (Herbicidal ratio of 90% or more (almost completely withered))
- O: Chenopodium album, herbicidal effect grade (Chenopodium album; 320 g/ha): 3 (Herbicidal ratio of 40% or higher and lower than 70%)
- Herbicidal effect grade, A: Echinochloa oryzacola Vasing. [3, 5]: 5 (Herbicidal ratio of 90% or more (almost completely withered))
- Herbicidal effect grade, P: Stellaria media (Stellaria media; [5]): 0 (Herbicidal ratio of 5% or lower (almost no effect))
- H (Echinochloa crus-galli var. crus-galli) herbicidal effect grade [4, 5]: 5 (Herbicidal ratio of 90% or more (almost completely withered))
- b: directly sowed rice plant, effect on crop grade (rice plant; 320 g/ha): 5 (Herbicidal ratio of 90% or more (almost completely withered))

SMILES: CC(=O)CC1CC(O)=C(c2c(C)cc(C)cc2C)C1=O (stereo not shown) [2-001, 3-hydroxy-2-mesityl-5-(2-oxopropyl)cyclopent-2-enone]
- g: rapeseed, effect on crop grade (rapeseed; 102 g/ha): 4 (Herbicidal ratio of 70% or higher and lower than 90%)
- f: beet, effect grade on crop (beet; 102 g/ha): 0 (Herbicidal ratio of 5% or lower (almost no effect))
- Herbicidal effect grade, B: Scirpus juncoides (Scirpus juncoides [1]; [6]): 0 (Herbicidal ratio of 5% or lower (almost no effect))
- F: Digitaria ciliaris, herbicidal effect grade (Digitaria ciliaris; 102 g/ha): 5 (Herbicidal ratio of 90% or more (almost completely withered))
- Herbicidal effect grade, B: Scirpus juncoides (Scirpus juncoides [2]; [6]): 0 (Herbicidal ratio of 5% or lower (almost no effect))
- I: Avena fatua, herbicidal effect grade (Avena fatua; 102 g/ha): 0 (Herbicidal ratio of 5% or lower (almost no effect))
- O: Chenopodium album, herbicidal effect grade (Chenopodium album; 102 g/ha): 3 (Herbicidal ratio of 40% or higher and lower than 70%)
- Herbicidal effect grade, A: Echinochloa oryzacola Vasing. [3, 6]: 0 (Herbicidal ratio of 5% or lower (almost no effect))
- P: Stellaria media, herbicidal effect grade (Stellaria media; 102 g/ha): 0 (Herbicidal ratio of 5% or lower (almost no effect))
- herbicidal effect on H (Echinochloa crus-galli var. crus-galli), grade 0-5 [4, 6]: 5 (Herbicidal ratio of 90% or more (almost completely withered))
- b: directly sowed rice plant, effect on crop grade (rice plant; 102 g/ha): 4 (Herbicidal ratio of 70% or higher and lower than 90%)

SMILES: CON=C(CC1CC(OC(=O)C(C)(C)C)=C(c2c(C)cc(C)cc2OC)C1=O)C1CC1 (mixture of isomers) [13-006]
- g: rapeseed, effect on crop grade (rapeseed; 320 g/ha): 4 (Herbicidal ratio of 70% or higher and lower than 90%)
- f: beet, effect on crop grade (beet; [5]): 0 (Herbicidal ratio of 5% or lower (almost no effect))
- B (Scirpus juncoides) herbicidal effect grade (Scirpus juncoides [1]; [5]): 5 (Herbicidal ratio of 90% or more (almost completely withered))
- F: Digitaria ciliaris, herbicidal effect grade (Digitaria ciliaris; 320 g/ha): 5 (Herbicidal ratio of 90% or more (almost completely withered))
- Herbicidal effect grade, B: Scirpus juncoides (Scirpus juncoides [2]; [5]): 3 (Herbicidal ratio of 40% or higher and lower than 70%)
- I: Avena fatua, herbicidal effect grade (Avena fatua; [5]): 0 (Herbicidal ratio of 5% or lower (almost no effect))
- O: Chenopodium album, herbicidal effect grade (Chenopodium album; 320 g/ha): 2 (Herbicidal ratio of 20% or higher and lower than 40%)
- Herbicidal effect grade, A: Echinochloa oryzacola Vasing. [3, 5]: 5 (Herbicidal ratio of 90% or more (almost completely withered))
- P: Stellaria media, herbicidal effect grade (Stellaria media; [5]): 0 (Herbicidal ratio of 5% or lower (almost no effect))
- H (Echinochloa crus-galli var. crus-galli) herbicidal effect grade [4, 5]: 5 (Herbicidal ratio of 90% or more (almost completely withered))
- b: directly sowed rice plant, effect on crop grade (rice plant; 320 g/ha): 5 (Herbicidal ratio of 90% or more (almost completely withered))

SMILES: CON=C(C)CC1CC(OC(=O)N(C)C)=C(c2c(C)cc(C)cc2C)C1=O (stereo not shown) [1-108]
- g: rapeseed, effect on crop (criteria 0-5) (rapeseed; 320 g/ha): 4 (Herbicidal ratio of 70% or higher and lower than 90%)
- f: beet, effect grade on crop (beet; 320 g/ha): 0 (Herbicidal ratio of 5% or lower (almost no effect))
- Herbicidal effect grade, B: Scirpus juncoides (Scirpus juncoides [1]; [5]): 4 (Herbicidal ratio of 70% or higher and lower than 90%)
- F: Digitaria ciliaris, herbicidal effect (criteria 0-5) (Digitaria ciliaris; 320 g/ha): 5 (Herbicidal ratio of 90% or more (almost completely withered))
- Herbicidal effect grade, B: Scirpus juncoides (Scirpus juncoides [2]; [5]): 3 (Herbicidal ratio of 40% or higher and lower than 70%)
- I: Avena fatua, herbicidal effect grade (Avena fatua; 320 g/ha): 3 (Herbicidal ratio of 40% or higher and lower than 70%)
- O: Chenopodium album, herbicidal effect (criteria 0-5) (Chenopodium album; 320 g/ha): 0 (Herbicidal ratio of 5% or lower (almost no effect))
- Herbicidal effect grade, A: Echinochloa oryzacola Vasing. [3, 5]: 5 (Herbicidal ratio of 90% or more (almost completely withered))
- P: Stellaria media, herbicidal effect grade (Stellaria media; 320 g/ha): 0 (Herbicidal ratio of 5% or lower (almost no effect))
- herbicidal effect on H (Echinochloa crus-galli var. crus-galli), grade 0-5 [4, 5]: 5 (Herbicidal ratio of 90% or more (almost completely withered))
- b: directly sowed rice plant, effect on crop (criteria 0-5) (rice plant; 320 g/ha): 5 (Herbicidal ratio of 90% or more (almost completely withered))

SMILES: CC(=O)C(C)C1CC(O)=C(c2c(C)cc(C)cc2C)C1=O (stereo not shown) [2-005]
- g: rapeseed, effect on crop grade (rapeseed; 269 g/ha): 4 (Herbicidal ratio of 70% or higher and lower than 90%)
- f: beet, effect on crop grade (beet; [7]): 0 (Herbicidal ratio of 5% or lower (almost no effect))
- Herbicidal effect grade, B: Scirpus juncoides (Scirpus juncoides [1]; [7]): 0 (Herbicidal ratio of 5% or lower (almost no effect))
- F: Digitaria ciliaris, herbicidal effect grade (Digitaria ciliaris; 269 g/ha): 3 (Herbicidal ratio of 40% or higher and lower than 70%)
- Herbicidal effect grade, B: Scirpus juncoides (Scirpus juncoides [2]; [7]): 0 (Herbicidal ratio of 5% or lower (almost no effect))
- I: Avena fatua, herbicidal effect grade (Avena fatua; [7]): 0 (Herbicidal ratio of 5% or lower (almost no effect))
- O: Chenopodium album, herbicidal effect grade (Chenopodium album; 269 g/ha): 0 (Herbicidal ratio of 5% or lower (almost no effect))
- Herbicidal effect grade, A: Echinochloa oryzacola Vasing. [3, 7]: 3 (Herbicidal ratio of 40% or higher and lower than 70%)
- P: Stellaria media, herbicidal effect grade (Stellaria media; [7]): 0 (Herbicidal ratio of 5% or lower (almost no effect))
- herbicidal effect on H (Echinochloa crus-galli var. crus-galli), grade 0-5 [4, 7]: 5 (Herbicidal ratio of 90% or more (almost completely withered))
- b: directly sowed rice plant, effect on crop grade (rice plant; 269 g/ha): 5 (Herbicidal ratio of 90% or more (almost completely withered))
